# Experimental data: patent publication US4677107A, “Anti-peptic ulcer agent” (Dainippon Pharmaceutical Co., Ltd., priority 1983, dated 1987)
# Assays:
# [1] = test system: ulceration induced by exposure to stress (restraint and water immersion); test: Effect on the ulceration induced by exposure to stress (restraint and water immersion); format: in vivo, male Wistar strain rats; conditions: ulcer index = sum of length (mm) of lesions
# Procedure: [I] Effect on the ulceration induced by exposure to stress (restraint and water immersion): Male Wistar strain rats (weighing, about 200 g) were placed in a stress cage which served to immobilize the animals therein and then immersed in a water bath of 23° C. to the height of xiphoid of the animals according to the method of Takagi et al. [cf. Takagi, K. and Okabe, S., Japan. J. Pharmacol., 18, 9 (1968)]. After 20 hours, the animals were sacrificed and the stomach was removed. The stomach was inflated with 13 ml of saline and placed in 5% formalin solution for 5 minutes. After washing with saline, the stomach was cut open along the greater curvature and the length (mm) of each lesion in the glandular portion was measured using a dissecting microscope (×12). The sum of the length (mm) of each lesions in a stomach was indicated as an ulcer index. In case of reference experiment using butylscopolamine bromide, a photograph of the mucosal surface of stomach was taken after the stomach was treated in the same manner as described above. The photograph was magnified by nine times, and the sum of the area (mm^2) of each lesions in a stomach was indicated as an ulcer index. The ulcer index in drug treated groups was compared with that in control group, and thereby, inhibitory percentage was calculated and then ED50 value, i.e., the dose required for 50% inhibition of the ulcer index, was determined by the usual graphic method. Drugs to be tested were suspended in 0.5% tragacanth solution and administered orally 30 minutes before the immersion. In the control group, a vehicle (0.5% tragacanth solution) was administered.
# [2] = test system: ulceration induced by pylorus-ligation; test: Effect on the ulceration induced by pylorus-ligation in rats; format: in vivo, male Wistar strain rats
# Procedure: [II] Effect on the ulceration induced by pylorus-ligation in rats: Male Wistar strain rats (weighing about 190 g) were fasted for 48 hours before experiment. The pylorus of each rat was ligated under ether anaesthesia according to the method of Shay et al. [cf. Shay, H., et al., Gastroenterology, 5, 43-61 (1945)]. Each of the animals was then allowed to stand abstained from food and water in a cage. After 18 hours, the animals were sacrificed under ether anaesthesia, and the stomachs were removed and cut open along the greater curvature. […] 4: marked ulcers more than two 5: perforated ulcer The ulcer index in drug treated groups was compared to that in the control group, and thereby, the inhibitory percentage was calculated and then ED50, i.e. the dose required for 50% inhibition of ulcer index, was determined by the usual graphic method. Drugs to be tested were suspended in 0.5% tragacanth solution and administered 30 minutes before the ligation. In the control group, a vehicle (0.5% tragacanth solution) was administered.
# gastric secretion = test: Effect on gastric secretion in rats (pylorus ligation, total acid content); format: in vivo, male Wistar strain rats
# Procedure: [III] Effect on gastric secretion in rats: Male Wistar strain rats (weighing, about 200 g) were fasted for 24 hours before experiment. The pylorus was ligated under ether anaesthesia. Four hours after the ligation, the stomach was removed under ether anaesthesia. The gastric content was collected and centrifuged, and the secretory volume, pH and acid content of the supernatant were measured. The acid content was measured by titrating to pH 7.0 with 0.02N NaOH using pH meter (Hitachi Horiba, M-5). The total acid content of the drug treated groups was compared with that of the control group, and thereby, the reduction percentage of acid content was calculated and then ED50, i.e. the dose required for 50% reduction of acid content, was determined by the usual graphic method. Drugs to be tested were suspended in 0.5% tragacanth solution and administered orally 30 minutes before the ligation. In the control group, a vehicle (0.5% tragacanth solution) was administered.
# pupil size = test: Mydriatic action in rats; format: in vivo, male Wistar strain rats; conditions: for Percent mydriasis: one hour after administration, 3 mm dilation = 100 percent
# Text: [IV] Mydriatic action in rats:
# Male Wistar strain rats (weighing, 150-200 g) were used. Pupil size of the animals was twice measured microscopically just before and one hour after administration of drugs at a distance of 30 cm from the source of a constant light (30 W fluorescent light) according to the method of Pulewka [cf. Arch. exp. Path. U. Pharmakol., 168, 307 (1932)]. Based on the change between the first measured pupil size and the second measured pupil size, mydriasis percentage was calculated provided that mydriasis percentage is supposed to be 100 percent in case of 3 mm dilation of pupil size in diameter. Drugs to be tested were suspended in 0.5% tragacanth solution and administered. In the control group, a vehicle (0.5% tragacanth solution) was administered.
# [3] = Toxicological study, LD50 mouse; conditions: in vivo, po, Mouse (ICR strain)
# Procedure: (§1) Further, the toxicological study was conducted according to the conventional method on Compound B. The results are shown in Table 5.
# [4] = Toxicological study, LD50 rat; conditions: in vivo, po, Rat (SD strain)
# Procedure: as §1
# [5] = Conversion after oral administration; format: in vivo; conditions: orally administered
# [6] = U.S. Pat. No. 4,237,135 and U.K. Pat. No. 2,017,698; cited from earlier work
# [7] = U.S. Pat. No. 4,237,135 and U.K. Pat. No. 2,017,698; cited from earlier work; remark: listed apart in the source
# [8] = test system: mouse-killing behavior of olfactory bulb-ablated rats; conditions: U.S. Pat. No. 4,237,135 and U.K. Pat. No. 2,017,698; cited from earlier work
# [9] = test system: brain noradrenaline turnover; conditions: U.S. Pat. No. 4,237,135 and U.K. Pat. No. 2,017,698; cited from earlier work
# [10] = U.S. Pat. No. 4,237,135 and U.K. Pat. No. 2,017,698; cited from earlier work; remark: listed apart in the source
compound,measurement,setting,value
"CCN1CCN(c2cc(-c3ccccc3)c3ccccc3n2)CC1.O=C(O)/C=C\C(=O)O.O=C(O)/C=C\C(=O)O [Compound B, 2-(4-ethyl-1-piperazinyl)-4-phenylquinoline dimaleate]",Ulcer index Inhibitory %,[1]; 1 mg/kg p.o.,44.5%
same,Ulcer index Inhibitory %,[1]; 2 mg/kg p.o.,66.6%
same,Ulcer index Inhibitory %,[1]; 5 mg/kg p.o.,90.1%
same,ED50,"[1]; Rattus norvegicus, po, 30 minutes before immersion, rats, read-out: ED50 (dose required for 50% inhibition of the ulcer index)",1.2 mg/kg
same,Ulcer index Inhibitory %,[2]; 5 mg/kg p.o.,0%
same,Ulcer index Inhibitory %,[2]; 10 mg/kg p.o.,28.6%
same,Ulcer index Inhibitory %,[2]; 20 mg/kg p.o.,57.1%
same,Ulcer index Inhibitory %,[2]; 50 mg/kg p.o.,78.6%
same,ED50,"[2]; Rattus norvegicus, po, 30 minutes before ligation, rats, 18 hours, ulcer index 0 to 5, read-out: ED50 (dose required for 50% inhibition of ulcer index)",19 mg/kg
same,Total acid content Reduction %,gastric secretion; 0.5 mg/kg p.o.,27.8%
same,Total acid content Reduction %,gastric secretion; 1 mg/kg p.o.,24.0%
same,Total acid content Reduction %,gastric secretion; 2 mg/kg p.o.,47.8%
same,Total acid content Reduction %,gastric secretion; 5 mg/kg p.o.,60.2%
same,ED50,"gastric secretion; Rattus norvegicus, po, 30 minutes before ligation, rats, 4 hours after ligation, read-out: ED50 (dose required for 50% reduction of acid content)",2.8 mg/kg
same,Percent mydriasis,pupil size; 5 mg/kg p.o.,0%
same,Percent mydriasis,pupil size; 10 mg/kg p.o.,2.7%
same,Percent mydriasis,pupil size; 20 mg/kg p.o.,4.7%
same,Percent mydriasis,pupil size; 50 mg/kg p.o.,2.0%
same,Percent mydriasis,pupil size; 100 mg/kg p.o.,2.7%
same,mydriatic action (in words),"pupil size; rats, up to 100 mg/kg",did entirely not show any mydriatic action even in a dose of 100 mg/kg
same,LD50,[3],~1200 mg/kg
same,LD50,[4],~3600 mg/kg
CCN1CCN(c2cc(-c3ccccc3)c3ccccc3n2)CC1 [2-(4-ethyl-1-piperazinyl)-4-phenylquinoline],conversion on oral administration,[5],partially converted into 2-(1-piperazinyl)-4-phenylquinoline
same,anti-reserpine activity,[6],showed anti-reserpine activity
same,anti-tetrabenazine activity,[7],anti-tetrabenazine activity
same,suppression of mouse-killing behavior of olfactory bulb-ablated rats,[8],suppression of mouse-killing behavior of olfactory bulb-ablated rats
same,inhibition of brain noradrenaline turnover,[9],inhibition of brain noradrenaline turnover
same,anti-tremorine activity,[10],has also anti-tremorine activity
